Target: B-Raf (V600E)-kinase (Homo sapiens (Human), UniProt P15056, V600E)
Assay: Kinase test B-RAF (V600E)
Type: biochemical
Details: B-RAF (V600E) kinase test, 250 μM ATP
Outline: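 Read-out is DELFIA europium TRF of phospho-MEK (Ser217/221) on biotinylated MEK1 bound to streptavidin plates, IC50 from dose-response. Reaction ran 60 min at RT with 250 μM ATP, after a 24 h RT preincubation of compound with B-Raf (V600E) kinase, 5% DMSO final.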

Chain of B-Raf (V600E)-kinase (P15056 whole entry V600E): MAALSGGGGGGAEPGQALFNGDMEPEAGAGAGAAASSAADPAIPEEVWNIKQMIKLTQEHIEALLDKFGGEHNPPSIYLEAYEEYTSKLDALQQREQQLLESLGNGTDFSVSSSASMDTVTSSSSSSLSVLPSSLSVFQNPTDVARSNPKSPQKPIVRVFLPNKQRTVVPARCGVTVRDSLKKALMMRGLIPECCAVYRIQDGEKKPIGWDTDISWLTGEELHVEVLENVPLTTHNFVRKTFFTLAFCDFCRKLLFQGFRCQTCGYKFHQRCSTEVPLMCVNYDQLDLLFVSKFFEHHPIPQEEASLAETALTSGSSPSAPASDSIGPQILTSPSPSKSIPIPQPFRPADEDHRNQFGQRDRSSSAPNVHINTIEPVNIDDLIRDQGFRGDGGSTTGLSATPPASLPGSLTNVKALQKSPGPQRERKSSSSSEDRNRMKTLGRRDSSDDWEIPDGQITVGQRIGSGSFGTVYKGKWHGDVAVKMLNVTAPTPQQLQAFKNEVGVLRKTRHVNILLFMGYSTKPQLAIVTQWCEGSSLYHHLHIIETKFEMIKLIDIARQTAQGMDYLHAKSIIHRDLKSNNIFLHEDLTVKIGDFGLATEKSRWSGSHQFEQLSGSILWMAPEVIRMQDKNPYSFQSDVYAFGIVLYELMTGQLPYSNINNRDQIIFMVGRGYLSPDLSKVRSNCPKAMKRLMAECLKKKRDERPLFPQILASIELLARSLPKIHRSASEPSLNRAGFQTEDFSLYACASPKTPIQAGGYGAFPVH

Row | Structure (SMILES) | IC50 [nM]
1 | COc1ccc(C(=O)Nc2cc(C(C)(C)C)on2)cc1Nc1ncnc2cnc(N(C)C)nc12 [III-83] | 8
2 | COc1ncc2ncnc(Nc3cc(C(=O)Nc4cccc(C(C)(C)C)c4)ccc3C)c2n1 [III-570] | < 1
3 | CCN1CCN(c2ncc3ncnc(Nc4cc(C(=O)Nc5ccc(OC)c(C(F)(F)F)c5)ccc4C)c3n2)CC1 [III-561] | 9
4 | COc1ccc(NC(=O)c2ccc(C)c(Nc3ncnc4cnc(NCC(C)C)nc34)c2)cc1C(F)(F)F [III-547] | < 1
5 | Cc1ccc(C(=O)Nc2ccc(C#N)c(C(F)(F)F)c2)cc1Nc1ncnc2cnc(N3CC[C@H](F)C3)nc12 [III-292] | 36
6 | CC(C)(C)c1cc(NC(=O)c2ccc(F)c(Nc3ncnc4cnc(NCCN5CCOCC5)nc34)c2)no1 [III-92] | 1
7 | COc1ccc(NC(=O)c2ccc(C)c(N(C)c3ncnc4cnc(NC5CCOC5)nc34)c2)cc1C(F)(F)F (centres unmarked) [III-585] | 27
8 | Cc1ccc(NS(C)(=O)=O)cc1Nc1ncnc2cnc(N3CCN(C)CC3)nc12 [IV-66] | 10000
9 | Cc1ccc(C(=O)Nc2cc(C(C)(C)C)on2)cc1Nc1ncnc2cnc(N3CCC(N4CCCC4)CC3)nc12 [III-490] | 2
10 | Cc1ccc(C(=O)Nc2cc(C(C)(C)C)on2)cc1Nc1ncnc2cnc(N3C[C@@H](C)N[C@@H](C)C3)nc12 [III-496] | 2
11 | COc1c(CN2CCCC2)cc(C(F)(F)F)cc1NC(=O)c1ccc(C)c(Nc2ncnc3cnc(N4CC[C@H](F)C4)nc23)c1 [III-541] | 15
12 | COc1ccc(C(C)(C)C)cc1NC(=O)c1ccc(C)c(Nc2ncnc3cnc(N(C)CCN(C)C)nc23)c1 [III-240] | 4
13 | CCN1CCN(c2ncc3ncnc(Nc4cc(NC(=O)c5cccc(C(C)(C)C#N)c5)ccc4C)c3n2)CC1 [IV-27] | 1
14 | Cc1ccc(C(=O)Nc2ccc(N(C)CCN(C)C)c(C(F)(F)F)c2)cc1Nc1ncnc2cnc(NCc3ccncc3)nc12 [III-136] | 3
15 | Cc1ccc(C(=O)Nc2cc(C(C)(C)C)on2)cc1Nc1ncnc2c(N)nc(N3CCN(C)CC3)nc12 [I-9] | 3
16 | Cc1ccc(C(=O)NCC2CCOC2)cc1Nc1ncnc2cnc(N(C)CCN(C)C)nc12 (centres unmarked) [III-197] | > 15000
17 | Cc1ccc(C(=O)Nc2nnc(C(F)(F)F)s2)cc1Nc1ncnc2cnc(N3CCNCC3)nc12 [III-342] | 2120
18 | Cc1ccc(C(=O)Nc2cc(C(C)(C)C)on2)cc1Nc1ncnc2cnc(N3CCC(N4C[C@@H](C)O[C@@H](C)C4)CC3)nc12 [III-488] | 6
19 | COc1ncc2ncnc(Nc3cc(C(=O)Nc4cc(C(C)(C)C)n[nH]4)ccc3C)c2n1 [III-575] | 3

Row | Structure (SMILES) | IC50 [nM]
20 | Cc1ccc(NC(=O)c2cccc(C(F)(F)F)c2)cc1Nc1ncnc2c(N)nc(N3CCN(C4CCN(C)CC4)CC3)nc12 [II-8] | 2
21 | Cc1ccc(C(=O)Nc2cc(OCCN3CCOCC3)cc(C(F)(F)F)c2)cc1Nc1ncnc2cnc(N3CCOCC3)nc12 [III-529] | 3
22 | CN1CCN(c2cc(NC(=O)c3ccc(F)c(Nc4ncnc5cnc(NC6CCOC6)nc45)c3)cc(C(F)(F)F)c2)CC1 (centres unmarked) [III-388] | < 1
23 | Cc1ccc(C(=O)Nc2ccc(Cl)c(C(F)(F)F)c2)cc1Nc1ncnc2cnc(N3CCCN(C)CC3)nc12 [III-220] | 5
24 | Cc1ccc(C(=O)Nc2cc(C(C)(C)C)on2)cc1Nc1ncnc2cnc(N3CCOCC3)nc12 [III-516] | < 1
25 | COc1ccc(NC(=O)c2ccc(F)c(Nc3ncnc4cnc(N5CCCCCC5)nc34)c2)cc1C(F)(F)F [III-32] | 1
26 | COc1ccc(C(F)(F)F)cc1NC(=O)c1ccc(C)c(Nc2ncnc3cnc(N4CCCN(C)CC4)nc23)c1 [III-219] | 8
27 | Cc1ccc(C(=O)Nc2ccc(F)c(C(F)(F)F)c2)cc1Nc1ncnc2cnc(N(C)CCN(C)C)nc12 [III-231] | 29
28 | Cc1ccc(C(=O)NCc2ccc(C(F)(F)F)cc2)cc1Nc1ncnc2cnc(N3CCOCC3)nc12 [III-307] | 114
29 | CCN1CCN(c2cc(NC(=O)c3ccc(C)c(Nc4ncnc5c(N)nc(N6CCCC6)nc45)c3)cc(C(F)(F)F)c2)CC1 [I-87] | 9
30 | CC(=O)N1CCN(c2ncc3ncnc(Nc4cc(NC(=O)c5cccc(C(C)(C)C#N)c5)ccc4C)c3n2)CC1 [IV-36] | 4
31 | CCN1CCN(c2cc(NC(=O)c3ccc(C)c(Nc4ncnc5cnc(N(C)CCOC)nc45)c3)cc(C(F)(F)F)c2)CC1 [III-470] | 2
32 | COCCN(C)c1ncc2ncnc(Nc3cc(C(=O)Nc4cccc(C(F)(F)F)c4)ccc3C)c2n1 [III-467] | 2
33 | COc1ccc(NC(=O)c2ccc(F)c(Nc3ncnc4cnc(N(C)CCN5CCCC5)nc34)c2)cc1C(F)(F)F [III-33] | 1
34 | Cc1ccc(C(=O)Nc2cc(N(C)CCN(C)C)cc(C(F)(F)F)c2)cc1Nc1ncnc2c(N)nc(N3CCOCC3)nc12 [I-76] | 1
35 | COc1ncc2ncnc(Nc3cc(C(=O)Nc4cc(N5CCN(C(C)C)CC5)cc(C(F)(F)F)c4)ccc3C)c2n1 [III-567] | 2
36 | COc1ccc(NC(=O)c2ccc(Cl)c(Nc3ncnc4cnc(N5CCCN(C)CC5)nc34)c2)cc1C(F)(F)F [III-7] | 1
37 | Cc1ccc(C(=O)Nc2cc(C(C)(C)C)on2)cc1Nc1ncnc2cnc(N3CCN(CC4CCCN(C)C4)CC3)nc12 (centres unmarked) [III-483] | 1

Results, then the compound that gave them:

Row | IC50 [nM] | Structure (SMILES)
38 | 1 | Cc1ccc(C(=O)Nc2cc(C(C)(C)C)on2)cc1Nc1ncnc2cnc(N3CCC4(CCN(C)C4)C3)nc12 (centres unmarked) [III-603]
39 | 3 | COc1ccc(NC(=O)c2ccc(C)c(Nc3ncnc4cnc(N5CC[C@H](F)C5)nc34)c2)cc1C(F)(F)F [III-411]
40 | 2 | Cc1ccc(C(=O)Nc2ccc(Cl)c(C(F)(F)F)c2)cc1Nc1ncnc2cnc(N3CCOCC3)nc12 [III-337]
41 | 2 | CCN(CC)c1ncc2ncnc(Nc3cc(C(=O)Nc4cc(CN5CCCC5)cc(C(F)(F)F)c4)ccc3C)c2n1 [III-117]
42 | > 15000 | Cc1ccc(C(=O)NCC2CCOC2)cc1Nc1ncnc2cnc(N3CCOCC3)nc12 (centres unmarked) [III-193]
43 | < 1 | COc1ccc(NC(=O)c2ccc(F)c(Nc3ncnc4cnc(NC5CCOC5)nc34)c2)cc1C(F)(F)F (centres unmarked) [III-390]
44 | 13 | Cc1ccc(C(=O)Nc2cc(C(C)(C)C)on2)cc1Nc1ncnc2cnc(NCC(C)C)nc12 [III-487]
45 | 2 | CN(C)C1CCN(c2ncc3ncnc(Nc4cc(C(=O)Nc5cc(C(C)(C)C)on5)ccc4F)c3n2)C1 (centres unmarked) [III-399]
46 | 1 | Cc1ccc(C(=O)Nc2cccc(C(F)(F)F)c2)cc1Nc1ncnc2c(N)nc(N3CCCN(c4ncccn4)CC3)nc12 [I-63]
47 | < 1 | Cc1ccc(C(=O)Nc2cccc(C(C)(C)C)c2)cc1Nc1ncnc2cnc(N3CCCN(C)CC3)nc12 [III-224]
48 | 4 | Cc1ccc(C(=O)Nc2cc(N3CCN(CCO)CC3)cc(C(F)(F)F)c2)cc1Nc1ncnc2cnc(N3CCOCC3)nc12 [III-526]
49 | 2 | CN1CCN(c2cc(NC(=O)c3ccc(F)c(Nc4ncnc5cnc(N6CCOCC6)nc45)c3)cc(C(F)(F)F)c2F)CC1 [III-385]
50 | 6 | CCN1CCN(c2cc(NC(=O)c3ccc(C)c(Nc4ncnc5cnc(N6CCN(CCOC)CC6)nc45)c3)cc(C(F)(F)F)c2)CC1 [III-424]
51 | 20 | Cc1ccc(NC(=O)c2cccc(C(F)(F)F)c2)cc1Nc1ncnc2c(N)nc(N3CCCNCC3)nc12 [II-11]
52 | 2 | Cc1ccc(NC(=O)c2cccc(C(C)(C)C#N)c2)cc1Nc1ncnc2cnc(NC3CCOCC3)nc12 [IV-38]
53 | < 1 | Cc1ccc(C(=O)Nc2cccc(C(F)(F)F)c2)cc1Nc1ncnc2c(N)nc(N3CCN(C4CCCC4)CC3)nc12 [I-57]
54 | 1 | Cc1ccc(C(=O)Nc2cc(OCCN(C)C)cc(C(F)(F)F)c2)cc1Nc1ncnc2cnc(NCc3ccccc3)nc12 [III-147]

Row | IC50 [nM] | Structure (SMILES)
55 | 1 | COc1ccc(NC(=O)c2ccc(C)c(Nc3ncnc4cnc(NCC5CCCCO5)nc34)c2)cc1C(F)(F)F (centres unmarked) [III-544]
56 | 1 | Cc1ccc(C(=O)Nc2cc(C(C)(C)C)on2)cc1Nc1ncnc2c(N)nc(N3CCCN(C)CC3)nc12 [I-11]
57 | 230 | CN1CCN(c2ncc3ncnc(Nc4cc(C(=O)Nc5cc(C(C)(C)C)on5)ccc4C(F)(F)F)c3n2)CC1 [III-60]
58 | 1 | Cc1ccc(C(=O)Nc2cc(CN3CCCC3)cc(C(F)(F)F)c2)cc1Nc1ncnc2cnc(NCC3CCOC3)nc12 (centres unmarked) [III-104]
59 | 1 | COCCN1CCC(Nc2ncc3ncnc(Nc4cc(C(=O)Nc5cc(C(C)(C)C)on5)ccc4C)c3n2)CC1 [III-594]
60 | 2 | COC[C@@H]1CCCN1c1ncc2ncnc(Nc3cc(C(=O)Nc4ccc(OC)c(C(F)(F)F)c4)ccc3C)c2n1 [III-545]
61 | 3 | Cc1ccc(C(=O)Nc2cccc(C(F)(F)F)c2)cc1Nc1ncnc2c(N)nc(N3CCCN(c4ccccn4)CC3)nc12 [I-67]
62 | < 1 | Cc1ccc(C(=O)Nc2cc(OCCN(C)C)cc(C(F)(F)F)c2)cc1Nc1ncnc2cnc(NCCF)nc12 [III-144]
63 | 2 | Cc1ccc(C(=O)Nc2cccc(C(F)(F)F)c2)cc1Nc1ncnc2cnc(N3CCCN(C)CC3)nc12 [III-217]
64 | 2 | COc1ccc(C(C)(C)C)cc1NC(=O)c1ccc(C)c(Nc2ncnc3cnc(N4CCNCC4)nc23)c1 [III-343]
65 | 8 | Cc1ccc(C(=O)Nc2ccc3c(c2)C(C)(C)C(=O)N3CCN2CCCC2)cc1Nc1ncnc2cnc(N3CCCN(C)CC3)nc12 [III-252]
66 | 1 | CC(C)(C#N)c1cccc(NC(=O)c2ccc(F)c(Nc3ncnc4cnc(NC5CCOC5)nc34)c2)c1 (centres unmarked) [III-386]
67 | 2 | Cc1ccc(C(=O)Nc2cc(OCCN(C)C)cc(C(F)(F)F)c2)cc1Nc1ncnc2cnc(N3CCCC3)nc12 [III-150]
68 | 4 | Cc1ccc(C(=O)Nc2cc(C(C)(C)C)on2)cc1Nc1ncnc2cnc(N3CCN(C4CCN(C)CC4)CC3)nc12 [III-486]
69 | 3 | Cc1ccc(C(=O)Nc2cc(C(C)(C)C)n[nH]2)cc1Nc1ncnc2cnc(N3CC[C@H](F)C3)nc12 [III-508]
70 | 1 | Cc1ccc(C(=O)Nc2cccc(C(F)(F)F)c2)cc1Nc1ncnc2c(N)nc(N3CCCN(C4CC4)CC3)nc12 [I-58]
71 | > 1000 | COc1ccc(NC(=O)c2ccc(C(F)(F)F)c(Nc3ncnc4cnc(N5CCCCC5)nc34)c2)cc1C(F)(F)F [III-48]

Reference: patent US8653087B2, “Pyrido [5, 4-D] pyrimidines as cell proliferation inhibitors” (Boehringer Ingelheim International GmbH, priority 2008, dated 2014)
